# Reference: article PMC11762577 (Materials Today Bio, 2025)
# Assays:
# U87-MG cells = experiment: CCK-8 cell viability / cytotoxicity assay in U87-MG cells; format: cell-based, human; settings: incubation with U87-MG cells for 24 h
# [1] = format: in vivo, BALB/c nude mice; settings: orthotopic glioma nude mice; 2.5 mg/kg Dox equivalent every three days; n = 5
smiles,measurement,setting,value
"COc1cccc2c1C(=O)c1c(O)c3c(c(O)c1C2=O)C[C@@](O)(C(=O)CO)C[C@@H]3O[C@H]1C[C@H](N)[C@H](O)[C@H](C)O1 [Dox, doxorubicin]","IC50 (equivalent Dox concentration), U87-MG cell viability",U87-MG cells,3.49 µg/mL
same,body weight of tumor-bearing mice,[1],decreased on day 12
